{"source": "patent US6359181B1", "about": "“Cyclopentane 1-hydroxy alkyl or alkenyl-2-one or 2-hydroxy derivatives as therapeutic agents” (Allergan Sales, Inc., priority 2000, dated 2002)", "key": {"[1]": {"system": "Dog intraocular pressure", "test": "Intraocular pressure in dogs by applanation pneumatonometry", "type": "in vivo", "settings": "25 μl to the ocular surface, IOP before and at 6 hours after administration, FIG. 9", "protocol": "The compounds were prepared at the said concentrations in a vehicle comprising 0.1% polysorbate 80 and 10 mM TRIS base. Dogs were treated by administering 25 μl to the ocular surface, the contralateral eye received vehicle as a control. Intraocular pressure was measured by applanation pneumatonometry. Dog intraocular pressure was measured immediately before drug administration and at 6 hours thereafter."}, "[2]": {"system": "ocular surface", "settings": "topical ocular use in humans; cited from earlier work"}, "[3]": {"system": "intraocular pressure", "settings": "ocular; compared with PGF2α; cited from earlier work"}}}
{"compound": "CC(=O)OCC(=O)CCC/C=C\\C[C@@H]1[C@@H](/C=C/[C@@H](O)CCc2ccc(Cl)s2)[C@H](O)C[C@@H]1O", "note": "[Example 101, Acetic Acid (Z)-8-{(1R,2R,3R,5S)-2-[(S)-(E)-5-(5-chloro-thiophen-2-yl)-3-hydroxy-pent-1-enyl]-3,5-dihydroxy-cyclopentyl}-2-oxo-oct-6-enyl Ester]", "values": [{"measurement": "ocular hypotensive effect", "setting": "[1]", "value": "pronounced ocular hypotensive effect"}]}
{"compound": "CC(=O)OCC(=O)CCC/C=C\\C[C@@H]1[C@@H](/C=C/[C@@H](O)CCc2ccc(Cl)s2)[C@H](OC(C)=O)C[C@@H]1O", "note": "[Example 102, Acetic Acid (Z)-8-{(1R,2R,3R,5S)-3-acetoxy-2-[(S)-(E)-5-(5-chloro-thiophen-2-yl)-3-hydroxy-pent-1-enyl]-5-hydroxy-cyclopentyl}-2-oxo-oct-6-enyl Ester]", "values": [{"measurement": "ocular hypotensive effect", "setting": "[1]", "value": "pronounced ocular hypotensive effect"}]}
{"compound": "CCCCC[C@H](O)/C=C/[C@@H]1[C@@H](C/C=C\\CCCC(=O)O)[C@@H](O)C[C@H]1O", "note": "[PGF2α, (Z)-7-[(1R,2R,3R,5S)-3,5-Dihydroxy-2-((S)-(E)-3-hydroxyoct-1-enyl)-cyclopentyl]hept-5-enoic Acid]", "values": [{"measurement": "ocular side effects", "setting": "[2]", "value": "ocular surface (conjunctival) hyperemia and foreign-body sensation"}]}
{"compound": "CCCCC[C@H](O)/C=C/[C@@H]1[C@@H](C/C=C\\CCCC(=O)OC(C)C)[C@@H](O)C[C@H]1O", "note": "[isopropyl ester of PGF2α]", "values": [{"measurement": "hypotensive potency versus parent compound", "setting": "[3]", "value": "significantly greater hypotensive potency than the parent compound"}, {"measurement": "ocular side effects", "setting": "[2]", "value": "ocular surface (conjunctival) hyperemia and foreign-body sensation"}]}
